From patent publication US8258098B2, “Antitumoral treatments” (Pharma Mar, S.A., priority 2006, dated 2012) come the findings set out here.

In one experiment the test system is LOXIMVI cells. As to the kind of experiment: MTS assay Example 2, single agents and combinations. The class given is cell-based. The following applies: read-out: IC50 (Molar). Here is the method:
(§1) The day before plating cells all cultures were fed with fresh, complete growth media. On the harvest (plating) day cells were counted by Trypan Blue exclusion staining method.
(§2) Cells were harvested and seeded in 96 well microtiter plates at 15,000 cells per well in 190 μl of media and incubated for 24 hours to allow the cells to attach before drug addition.
(§3) The cytotoxic effect was measured by the MTS Assay (Tetrazolium), which is a colorimetric method for determining the number of viable cells.
(§4) After 72 hours of incubation with tested agents 25 μl of MTS+PMS solution was added to each microtiter well and incubated for 4 hours at 37° C. Plates were then removed from incubator and placed on plate shaker for 5 minutes (covered with aluminum foil for protection from light). Optical densities were read at 490 nm on spectrophotometer plate reader. Data was analyzed as: • 1. Prism (Graphpad) software program was used to normalized the data to control values (100%=cell growth in the absence of agent (drug); 0%=blank control). • 2. Data normalized were plotted as scatter plots.
(§5) Conversely, antagonism was concluded when inhibition was lower than both maxima. […] Statistical significance was assessed by performing a student's t-test on the inhibition at each dose ratio versus the inhibition at the maximum for each drug.
(§6) As a visual aid, response values were plotted on a scatter plot with dose ratios given on the x-axis and % response values on the y-axis. […] In cases where response values at the two endpoints were approximately equivalent, points lying above or below this predicted line of additivity could be interpreted as representing antagonistic or synergistic drug interaction respectively.

The next experiment concerns UACC-257 cells. The experiment is described as above. The class given is cell-based. The note with it: UACC-257, MTS; read-out: IC50 (Molar). Here is the method: as §1, §2, §3, §4, §5, §6
Experiment [1] has as its system LOX-IMVI melanoma tumor xenografts. As to the kind of experiment: Net tumor volume in tumor xenografts. Format: in vivo, female athymic mice. The following applies: DTIC 30 mg/kg, Carboplatin 25 mg/kg, i.p. From the text: (§7) Athymic nude female mice were received from Harlan Sprague Dawley, Madison, Wis. at 4-5 weeks of age. Mice were acclimated to the laboratory for at least one week prior to implantation of tumor. Animals were housed in static cages with food and water allowed ad libitum. Experimental animals were implanted with either tumor fragments derived from transplantation established human tumors or with cells obtain directly from in vitro culture. Tumors were implanted subcutaneously on the right flank on Day 0.
(§8) Tumor size measurements were recorded twice weekly beginning on day 4 or 5 using vernier calipers. The formula to calculate volume for a prolate ellipsoid was used to estimate tumor volume from 2-dimensional tumor measurements: tumor volume (mm^3)=(length×width^2)÷2. Assuming unit density, volume was converted to weight (i.e., 1 mm^3=1 mg). […] Treatments were initiated and administered on an individual body weight basis. A dose range finding study was performed on each tumor model to determine the appropriate dose level of each compound used in the combination studies.

Experiment [2] concerns MRI-H187 melanoma tumor xenografts. As to the kind of experiment: Net tumor volume in tumor xenografts. Format: in vivo, female athymic mice. The note with it: Aplidine 50 μg/kg, DTIC 40 mg/kg, Carboplatin 25 mg/kg, i.p.
Description: as §7, §8

The term IC50 denotes the concentration needed to halve the response being measured. With `N.N.O=C([O-])C1(C(=O)[O-])CCC1.[Pt+2]` [carboplatin], the IC50 in the experiment with LOXIMVI cells amounted to 120 µM; with UACC-257 cells, 170 µM. The “Net Tumor Volume ± S.E.M.” value turned out to be 107 ± 3 mg in experiment [1] (DAY 6, Aplidine 50 μg/kg); 347 ± 43 mg in experiment [1] (DAY 8, Aplidine 50 μg/kg); 1167 ± 117 mg in experiment [1] (DAY 12, Aplidine 50 μg/kg); 2936 ± 543 mg in experiment [1] (DAY 14, Aplidine 50 μg/kg); 4598 ± 1182 mg in experiment [1] (DAY 19, Aplidine 50 μg/kg); 213 ± 32 mg in experiment [2] (MRI-H187, DAY 24). The “Net Tumor Volume ± S.E.M.” value in experiment [2] (MRI-H187, DAY 27) was 301 ± 50 mg; in experiment [2] (MRI-H187, DAY 34), 540 ± 99 mg; in experiment [2] (MRI-H187, DAY 38), 793 ± 132 mg; in experiment [2] (MRI-H187, DAY 41), 917 ± 138 mg; in experiment [2] (MRI-H187, DAY 46), 1303 ± 237 mg; in experiment [2] (MRI-H187, DAY 52) it was 1603 ± 288 mg. Also, the “Net Tumor Volume ± S.E.M.” value in experiment [2] (MRI-H187, DAY 55) worked out at 1989 ± 373 mg; in experiment [2] (MRI-H187, DAY 59), 2292 ± 487 mg; in experiment [2] (MRI-H187, DAY 62) it was 2659 ± 492 mg; in experiment [2] (MRI-H187, DAY 66), 2723 ± 519 mg.
